Measurements from ChEMBL document CHEMBL1201862, “PubChem BioAssay data set” (2004).
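Tested at 5 concentrations; 48 h exposure; 96-well plates; endpoints linearly interpolated, else capped at highest concentration. Here, GI50 denotes the concentration required for 50% inhibition of growth.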 Activity calls are given as the source filed them. Rule as the data show it: active = GI50 up to about 1.1 µM and inactive = higher.

Assays:
Test in all cases: NCI-60 cell line screen, 48 h
SW-620 = tested on: SW-620
UO-31 = tested on: UO-31
OVCAR-4 = tested on: OVCAR-4
NCI-H23 = tested on: NCI-H23
PC-3 = tested on: PC-3
Malme-3M = tested on: Malme-3M
SK-MEL-2 = tested on: SK-MEL-2
UACC-62 = tested on: UACC-62
MDA-MB-435 = tested on: MDA-MB-435
DU-145 = tested on: DU-145
RXF 393 = tested on: RXF 393
CCRF-CEM = tested on: CCRF-CEM
HOP-92 = tested on: HOP-92
NCI-H460 = tested on: NCI-H460
MDA-N = tested on: MDA-N
NCI/ADR-RES = tested on: NCI/ADR-RES
UACC-257 = tested on: UACC-257
786-0 = tested on: 786-0
A549 = tested on: A549
Hs-578T = tested on: Hs-578T
NCI-H226 = tested on: NCI-H226
BT-549 = tested on: BT-549
HCT-15 = tested on: HCT-15
SN12C = tested on: SN12C
HOP-62 = tested on: HOP-62
COLO 205 = tested on: COLO 205
SF-539 = tested on: SF-539
MDA-MB-231 = tested on: MDA-MB-231
SNB-19 = tested on: SNB-19
MCF7 = tested on: MCF7
KM12 = tested on: KM12
HCT-116 = tested on: HCT-116
T47D = tested on: T47D
M14 = tested on: M14
OVCAR-3 = tested on: OVCAR-3
HT-29 = tested on: HT-29
SNB-75 = tested on: SNB-75
HL-60 = tested on: HL-60
RPMI-8226 = tested on: RPMI-8226
OVCAR-8 = tested on: OVCAR-8
K562 = tested on: K562
SF-268 = tested on: SF-268
SK-MEL-5 = tested on: SK-MEL-5
OVCAR-5 = tested on: OVCAR-5
A498 = tested on: A498
SK-MEL-28 = tested on: SK-MEL-28
SF-295 = tested on: SF-295
CAKI-1 = tested on: CAKI-1
SK-OV-3 = tested on: SK-OV-3
IGROV-1 = tested on: IGROV-1
EKVX = tested on: EKVX
U-251 = tested on: U-251
HCC 2998 = tested on: HCC 2998
MOLT-4 = tested on: MOLT-4
NCI-H522 = tested on: NCI-H522
LOX IMVI = tested on: LOX IMVI
TK-10 = tested on: TK-10
ACHN = tested on: ACHN

Measured: GI50

Cc1ccc(S(=O)(=O)c2c(O)c3ccccc3n(C)c2=O)cc1
> 100 µM: HCT-15
inactive: SW-620 > 100 µM | UO-31 > 100 µM | OVCAR-4 > 100 µM | NCI-H23 > 100 µM | PC-3 > 100 µM | Malme-3M > 100 µM | SK-MEL-2 > 100 µM | UACC-62 > 100 µM | MDA-MB-435 > 100 µM | DU-145 > 100 µM | RXF 393 > 100 µM | CCRF-CEM > 100 µM | HOP-92 > 100 µM | NCI-H460 > 100 µM | MDA-N > 100 µM | NCI/ADR-RES > 100 µM | UACC-257 > 100 µM | 786-0 > 100 µM | A549 > 100 µM | Hs-578T > 100 µM | NCI-H226 > 100 µM | BT-549 > 100 µM | SN12C > 100 µM | HOP-62 > 100 µM | COLO 205 > 100 µM | SF-539 > 100 µM | MDA-MB-231 > 100 µM | SNB-19 > 100 µM | MCF7 > 100 µM | KM12 > 100 µM | HCT-116 > 100 µM | T47D > 100 µM | M14 > 100 µM | OVCAR-3 > 100 µM | HT-29 > 100 µM | SNB-75 > 100 µM | HL-60 > 100 µM | RPMI-8226 > 100 µM | OVCAR-8 > 100 µM | K562 > 100 µM | SF-268 > 100 µM | SK-MEL-5 > 100 µM | OVCAR-5 > 100 µM | A498 > 100 µM | SK-MEL-28 > 100 µM | SF-295 > 100 µM | CAKI-1 > 100 µM | SK-OV-3 > 100 µM | IGROV-1 > 100 µM | EKVX > 100 µM | U-251 > 100 µM

CCSc1n/c(=C\c2ccco2)c2nnnn12
inactive: SW-620 > 100 µM | UO-31 > 100 µM | HCC 2998 > 100 µM | MOLT-4 > 100 µM | OVCAR-4 > 100 µM | NCI-H23 > 100 µM | PC-3 > 100 µM | Malme-3M > 100 µM | SK-MEL-2 > 100 µM | UACC-62 > 100 µM | MDA-MB-435 > 100 µM | DU-145 > 100 µM | RXF 393 > 100 µM | NCI-H522 > 100 µM | CCRF-CEM > 100 µM | HOP-92 > 100 µM | MDA-N > 100 µM | NCI/ADR-RES > 100 µM | UACC-257 > 100 µM | 786-0 > 100 µM | A549 > 100 µM | Hs-578T > 100 µM | NCI-H226 > 100 µM | BT-549 > 100 µM | SN12C > 100 µM | HOP-62 > 100 µM | LOX IMVI > 100 µM | COLO 205 > 100 µM | SF-539 > 100 µM | MDA-MB-231 > 100 µM | SNB-19 > 100 µM | MCF7 > 100 µM | KM12 > 100 µM | HCT-116 > 100 µM | T47D > 100 µM | M14 > 100 µM | OVCAR-3 > 100 µM | HT-29 > 100 µM | SNB-75 > 100 µM | RPMI-8226 > 100 µM | OVCAR-8 > 100 µM | TK-10 > 100 µM | SF-268 > 100 µM | ACHN > 100 µM | SK-MEL-5 > 100 µM | OVCAR-5 > 100 µM | A498 > 100 µM | SK-MEL-28 > 100 µM | SF-295 > 100 µM | CAKI-1 > 100 µM | SK-OV-3 > 100 µM | IGROV-1 > 100 µM | EKVX > 100 µM | U-251 > 100 µM
> 100 µM: HCT-15

CCCCCCCCCCOc1ccc(/N=N/c2nnc(-c3ccc(OCCCCC)cc3)s2)cc1
inactive: SW-620 > 100 µM | HCC 2998 > 100 µM | MOLT-4 > 100 µM | OVCAR-4 > 100 µM | NCI-H23 > 100 µM | PC-3 > 100 µM | Malme-3M > 100 µM | UACC-62 48 µM | MDA-MB-435 34.5 µM | DU-145 > 100 µM | RXF 393 65 µM | NCI-H522 > 100 µM | CCRF-CEM > 100 µM | HOP-92 > 100 µM | NCI-H460 > 100 µM | MDA-N > 100 µM | NCI/ADR-RES > 100 µM | UACC-257 49.9 µM | 786-0 > 100 µM | A549 > 100 µM | Hs-578T > 100 µM | BT-549 > 100 µM | SN12C > 100 µM | HOP-62 > 100 µM | LOX IMVI > 100 µM | COLO 205 > 100 µM | SF-539 > 100 µM | MDA-MB-231 > 100 µM | SNB-19 > 100 µM | MCF7 39.2 µM | KM12 62.4 µM | HCT-116 > 100 µM | T47D > 100 µM | M14 > 100 µM | OVCAR-3 97.3 µM | HT-29 > 100 µM | RPMI-8226 > 100 µM | OVCAR-8 > 100 µM | TK-10 > 100 µM | K562 > 100 µM | SF-268 > 100 µM | ACHN 93.5 µM | SK-MEL-5 > 100 µM | OVCAR-5 > 100 µM | A498 49.4 µM | SK-MEL-28 > 100 µM | SF-295 62.5 µM | CAKI-1 > 100 µM | SK-OV-3 > 100 µM | IGROV-1 > 100 µM | EKVX > 100 µM | U-251 > 100 µM
> 100 µM: HCT-15

O=C1c2ccccc2/C(=N\c2ccc3ccccc3c2)C1(C1=C(c2ccccc2)/C(=N/c2ccc3ccccc3c2)c2ccccc21)c1ccccc1 (configuration not stated)
inactive: SW-620 36.6 µM | UO-31 4.65 µM | HCC 2998 11.5 µM | MOLT-4 2.58 µM | OVCAR-4 5.37 µM | NCI-H23 4.09 µM | PC-3 4.41 µM | SK-MEL-2 11.9 µM | UACC-62 5.15 µM | MDA-MB-435 3.33 µM | DU-145 5.57 µM | RXF 393 > 24 µM | NCI-H522 5.4 µM | CCRF-CEM 11.2 µM | HOP-92 > 100 µM | NCI-H460 3.32 µM | MDA-N 3.89 µM | NCI/ADR-RES 6.01 µM | UACC-257 5.73 µM | 786-0 4.8 µM | A549 11.1 µM | Hs-578T 23.2 µM | NCI-H226 7.21 µM | BT-549 5.62 µM | SN12C 9.48 µM | HOP-62 12.5 µM | LOX IMVI 4.01 µM | COLO 205 6.34 µM | SF-539 6.15 µM | MDA-MB-231 15.3 µM | SNB-19 73.3 µM | MCF7 4.05 µM | KM12 4.14 µM | HCT-116 3.85 µM | T47D 5.5 µM | M14 4.02 µM | OVCAR-3 73.3 µM | HT-29 3.48 µM | SNB-75 7.67 µM | HL-60 4.5 µM | RPMI-8226 3.64 µM | OVCAR-8 6.89 µM | TK-10 45.5 µM | K562 4.22 µM | SF-268 4.16 µM | ACHN 2.53 µM | SK-MEL-5 2.17 µM | OVCAR-5 > 57.8 µM | A498 > 10 µM | SK-MEL-28 6.27 µM | SF-295 10.9 µM | CAKI-1 7.53 µM | SK-OV-3 22.1 µM | IGROV-1 6.34 µM | EKVX 28.8 µM | U-251 9.75 µM
2.55 µM: HCT-15

Cc1c(S(=O)(=O)N/C(=N\O)Nc2ccc(Cl)c(Cl)c2)sc2ccc(Cl)cc12
inactive: SW-620 39.4 µM | UO-31 20.3 µM | HCC 2998 19.9 µM | MOLT-4 34.1 µM | OVCAR-4 15.1 µM | NCI-H23 17.8 µM | PC-3 18.6 µM | Malme-3M 20.7 µM | SK-MEL-2 18.9 µM | UACC-62 17.7 µM | MDA-MB-435 17.9 µM | DU-145 18.8 µM | RXF 393 16.9 µM | NCI-H522 15.9 µM | CCRF-CEM 26.8 µM | HOP-92 22.2 µM | MDA-N 17.5 µM | NCI/ADR-RES 18.7 µM | UACC-257 19.9 µM | 786-0 19.7 µM | A549 24.7 µM | Hs-578T 28.6 µM | NCI-H226 20.9 µM | BT-549 17.7 µM | SN12C 18.7 µM | HOP-62 18.5 µM | LOX IMVI 20.7 µM | COLO 205 17.9 µM | SF-539 23 µM | MDA-MB-231 23.8 µM | SNB-19 19.1 µM | MCF7 24.9 µM | KM12 16.9 µM | HCT-116 17.8 µM | T47D 14.4 µM | M14 21.5 µM | OVCAR-3 14.5 µM | HT-29 14.4 µM | HL-60 26.7 µM | RPMI-8226 34.7 µM | OVCAR-8 21.9 µM | TK-10 17.7 µM | K562 29.5 µM | SF-268 24.8 µM | ACHN 12.1 µM | SK-MEL-5 15.1 µM | OVCAR-5 21.6 µM | A498 18.1 µM | SK-MEL-28 21.4 µM | SF-295 16 µM | CAKI-1 18.5 µM | IGROV-1 17.5 µM | EKVX 12.9 µM | U-251 21.3 µM
17.1 µM: HCT-15
